Values of other authors in patent US20230233498A1, “COMPOSITIONS AND METHODS FOR THE TREATMENT OF COVID-19” (PROTHIONE, LLC, priority 2020, published 2023).
Where two headings read alike, the source gives them in different places.

Experiments:
[1] = system: zinc-dependent metalloproteinases; settings: for GP shedding: higher concentrations (25-50 mM)
rotaviruses = settings: 10 mM
[2] = system: Human Foreskin (HF) cells infected with HSV-2-strain G; settings: 3 to 1.5 mM

For `CNC(=O)[C@@H](NC(=O)[C@H](CC(C)C)[C@H](O)C(=O)NO)C(C)(C)C` [BB2516], the “inhibition of glycoprotein shedding” value ([1]; concentration of 0.5 mM) is listed as “inhibitory effects were observed”.

In the case of `COc1ccc(S(=O)(=O)N(Cc2cccnc2)[C@@H](C(=O)NO)C(C)C)cc1` [CGS-27023A], the GP shedding [1] is listed as “reduced GP shedding”.

For `O=C(O)CN(CCN(CC(=O)O)CC(=O)O)CC(=O)O` [EDTA, ethylenediaminetetraacetic acid], the “effect on viral particles” value (rotaviruses) is given as “non-infectious viral particles”.

In the case of `CNC(=O)[C@H](Cc1c[nH]c2ccccc12)NC(=O)[C@@H](CC(=O)NO)CC(C)C` [GM6001], the “inhibition of glycoprotein shedding” value ([1]; concentration of 5 mM) is listed as “inhibitory effects were observed”.

In the case of `COc1ccc(S(=O)(=O)N(CC(=O)NO)CC(C)C)cc1` [MMP-3 inhibitor II], the GP shedding [1] is listed as “reduced GP shedding”.

In the case of `COc1ccc(S(=O)(=O)N2Cc3ccccc3C[C@@H]2C(=O)NO)cc1` [MMP-8 inhibitor I], the “inhibition of glycoprotein shedding” value ([1]; concentration of 5 mM) is listed as “inhibitory effects were observed”.

In the case of `CC(C)C[C@H](CC(=O)NO)C(=O)N[C@@H](Cc1ccc2ccccc2c1)C(=O)N[C@@H](C)C(=O)NCCN` [TAPI-I], the GP shedding [1] is listed as “reduced GP shedding”.

In the case of `O=C(O)c1ccccn1` [picolinic acid], the “apoptosis of infected cells” value [2] is given as “cause apoptosis of HF infected cells”.
